Test results from patent US20250110130A1, “EX VIVO PROTEASE ACTIVATION AND DETECTION” (SunBird Bio, Inc., priority 2021, published 2025).
Non-standard residues stand in square brackets, D forms with d. Primed or numbered codes have the meaning given here. No end group written: not given here. *: point of attachment. CPQ2 = fluorescent quencher, paired with 5-carboxyfluorescein; 5FAM = O=C1OC2(c3ccc(O)cc3Oc3cc(O)ccc32)c2ccc(C(=O)*)cc21; FAM = 5-carboxyfluorescein (fluorescent label); PEG2′ = PEG spacer

What was measured:
[1] = system: protease activity sensed by Probe #102 (cathepsin L, CTSL) in K2 EDTA plasma; assay: Protease inhibitor profiling of Probe #102 cleavage in NASH and healthy plasma; conditions: for effect of inhibitor on signal, in words: Probe #102, NASH and healthy plasma
Method: For this experiment, all plasma samples were prepared individually and diluted 1/10e in PBS with inhibitor added directly to the samples. Inhibitor was prepared at 15× concentration to final. Substrates were diluted in DI water at 18 uM, such that the final concentration on the plate would be 6 uM. All samples were prepared such that their last dilution on the plate would not affect the desired final concentration. 10 ul of each individual sample was pipetted into their corresponding wells, and the plate was then spun down in the centrifuge at 1500 RPM for 30 seconds to coat the bottom of each well with the sample. 5 ul of the 18 uM substrate solution was pipetted into each well being used on a 384 well plate, and then the plate was spun down in the centrifuge at 1500 rpm for 30 seconds. The plate was placed immediately in the plate reader at 37° C. for a 30-minute-long fluorescence kinetic read at 485/535 extended gain.
To assess the proteolytic cleavage pattern of Probe #102, samples were tested using a pool of broad inhibitors for serine, cysteine, threonine, MMP and aspartic protease family members (broad inhibitor) to assess general protease activity, AEBSF for serine proteases, E64 for cysteine proteases, CTSi for broad cathepsin inhibition of cathepsins L, S, K and B, or specific inhibitors for cathepsin K (L00625), for cathepsin L (SID) or cathepsin B (CA074).

[2] = system: MMPs in K2 EDTA plasma; assay: Zinc reactivation of MMPs in human K2 EDTA plasma; assay type: biochemical; conditions: for protease activity recovered by Calcium compared to Zinc: Calcium up to 6 mM vs 1 mM Zinc, plasma
Description: In this experiment, MMPs are reactivated in K2 EDTA plasma that has been collected with EDTA. EDTA causes chelation of the […] ion and interferes with the stability of the MMPs and has high MMP inhibition activity in vitro. The goal of zinc addition was to reactivate potential MMPs in solution that have been inhibited due to the addition of K2 EDTA.
To reactivate the MMPs in plasma, the EDTA was completely titrated and bound to the Zinc while the excess zinc in the solution was also used as an activating agent for the MMPs. Zinc chloride (Alfa Aesar) was prepared in ddH2O and fully dissolved. The zinc chloride ([…]) solution was then diluted in an assay buffer designed for MMPs. The plasma samples were prepared in the MMP buffer and the plasma samples were combined with the ZnCl solution in a 3:1 ratio. The mixture was incubated on ice after being combined. While the samples were incubating, the related substrates were prepared for analysis. Substrates used in this experiment were Probes #117, 263, 349, and 417. Samples were added to a substrate of interest once the sample incubation was complete. The mixture was spun, and results were read on a Biotek Synergy H1 at Ex/Em=485/535 using extended dynamic range.

[3] = target: T1, MMP2 (Homo sapiens, UniProt P08253); assay: Recombinant MMP2 spike-in to human K2 EDTA plasma with Zinc titration; assay type: biochemical; design: host or cells: spiked into human K2 EDTA plasma
T1 sequence (P08253 110-660): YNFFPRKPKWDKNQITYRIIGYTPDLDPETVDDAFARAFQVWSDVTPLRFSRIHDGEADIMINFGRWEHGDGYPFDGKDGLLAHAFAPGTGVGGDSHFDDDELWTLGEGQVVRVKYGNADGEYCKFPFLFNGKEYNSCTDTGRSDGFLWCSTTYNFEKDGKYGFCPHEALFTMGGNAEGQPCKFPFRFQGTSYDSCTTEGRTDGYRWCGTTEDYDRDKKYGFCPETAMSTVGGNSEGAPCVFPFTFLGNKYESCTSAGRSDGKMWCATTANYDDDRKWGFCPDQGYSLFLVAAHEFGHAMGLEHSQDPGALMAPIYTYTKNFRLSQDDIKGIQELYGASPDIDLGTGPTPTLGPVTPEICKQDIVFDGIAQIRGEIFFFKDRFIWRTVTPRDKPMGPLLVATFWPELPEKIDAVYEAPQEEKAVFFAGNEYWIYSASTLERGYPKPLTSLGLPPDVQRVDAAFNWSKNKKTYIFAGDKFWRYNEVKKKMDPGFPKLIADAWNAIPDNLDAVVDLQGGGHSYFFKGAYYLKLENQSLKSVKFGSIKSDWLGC

[4] = system: carboxylesterase 1, phospholipase A2 and lipoprotein lipase; assay: Spiked recombinant enzymes in human plasma with resorufin oleate as substrate; assay type: biochemical
[5] = system: protease (caspase) activity in mouse plasma; assay: Ex vivo probe assay in plasma of the Jo2 mouse model of fulminant hepatitis; assay type: biochemical; conditions: mouse plasma 3 hours after Jo2 injection
Method: Fulminant hepatitis is induced after injection intraperitoneal of monoclonal antibody anti-CD95 (Jo2, BD biosciences, 4 ug/animal), and mouse plasma samples were collected 3 hours after Jo2 injection.
The comparison with mass spectrometry data also aligns and confirms high concordance with the ex vivo approach, which is reassuring to confirm the existence of a biologically relevant signal.

[6] = target: T2, MMP20 (Homo sapiens, UniProt O60882); assay: Recombinant protease screen of probes; assay type: biochemical; conditions: recombinant MMP20, 1 h fluorescence read
T2 sequence (O60882 108-483): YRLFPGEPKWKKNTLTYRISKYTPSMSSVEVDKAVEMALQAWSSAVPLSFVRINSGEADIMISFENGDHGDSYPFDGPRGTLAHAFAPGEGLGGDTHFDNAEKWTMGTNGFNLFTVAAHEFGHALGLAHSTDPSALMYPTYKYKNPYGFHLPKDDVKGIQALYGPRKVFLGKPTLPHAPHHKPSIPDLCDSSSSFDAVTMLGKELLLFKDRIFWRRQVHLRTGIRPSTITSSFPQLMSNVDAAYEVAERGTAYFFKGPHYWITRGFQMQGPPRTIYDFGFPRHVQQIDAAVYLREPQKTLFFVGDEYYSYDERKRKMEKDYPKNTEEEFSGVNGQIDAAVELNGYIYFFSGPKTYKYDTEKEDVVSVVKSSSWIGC
Method: (§1) To determine different probes' ability to cleave MMPs and/or DPP4, samples were pipetted into each well in a 384 well plate. […] The plate was centrifuged again, and the plate was then placed into the plate reader for a 1 h fluorescence read.

[7] = target: T1, MMP2; assay: Recombinant protease screen of probes; assay type: biochemical; conditions: recombinant MMP2, 1 h fluorescence read
Method: as §1

[8] = system: MMP protease signal in mouse plasma; assay: Zinc reactivation of MMPs in mouse plasma, healthy vs NASH; assay type: biochemical; conditions: for Fold change ratio, Zinc Buffer: Zinc MMP buffer
Description: To perform this experiment, samples were pipetted into each well of a 384 well plate. […] The plate was kept on ice throughout procedure. […] Then, the place was centrifuged again.
A summary table of the results can be found in Table 4.

[9] = target: MMP13 (Homo sapiens, UniProt P45452); assay: Recombinant protease screen of probes; assay type: biochemical; conditions: recombinant MMP13, 1 h fluorescence read
Method: as §1

[10] = system: protease activity in COVID and healthy plasma; assay: Ex vivo probe assay in COVID and healthy plasma (K2 EDTA and Lithium Heparin); assay type: biochemical; conditions: K2 EDTA samples
[11] = target: DPP4 (Homo sapiens, UniProt P27487); assay: Recombinant protease screen of probes; assay type: biochemical; conditions: recombinant DPP4, 1 h fluorescence read
Sequence of DPP4 (P27487 whole entry, species assumed): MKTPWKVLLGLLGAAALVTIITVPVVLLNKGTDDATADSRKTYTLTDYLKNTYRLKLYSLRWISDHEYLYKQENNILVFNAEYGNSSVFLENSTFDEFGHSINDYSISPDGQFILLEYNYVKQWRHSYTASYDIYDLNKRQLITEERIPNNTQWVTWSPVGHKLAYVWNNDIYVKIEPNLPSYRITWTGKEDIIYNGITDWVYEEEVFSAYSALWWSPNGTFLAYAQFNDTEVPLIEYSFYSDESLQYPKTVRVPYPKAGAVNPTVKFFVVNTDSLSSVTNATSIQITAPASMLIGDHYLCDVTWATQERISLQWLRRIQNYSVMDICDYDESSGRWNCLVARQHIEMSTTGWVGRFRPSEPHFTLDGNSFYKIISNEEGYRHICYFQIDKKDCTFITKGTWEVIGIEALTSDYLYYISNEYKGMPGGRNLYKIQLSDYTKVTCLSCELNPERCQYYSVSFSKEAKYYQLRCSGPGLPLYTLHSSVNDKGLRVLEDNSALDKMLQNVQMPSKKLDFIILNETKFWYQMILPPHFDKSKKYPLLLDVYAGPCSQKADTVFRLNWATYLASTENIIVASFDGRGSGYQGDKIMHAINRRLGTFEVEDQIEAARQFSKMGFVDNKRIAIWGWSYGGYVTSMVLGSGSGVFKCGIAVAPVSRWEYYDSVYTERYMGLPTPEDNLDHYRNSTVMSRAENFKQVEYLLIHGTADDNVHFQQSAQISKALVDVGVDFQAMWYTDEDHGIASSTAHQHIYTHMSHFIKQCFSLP
Method: as §1

Compound: NCCc1ccc(S(=O)(=O)F)cc1 [AEBSF]
- decrease of signal in NASH samples by inhibitor ([1]; Probe #102, NASH plasma): 65%
- decrease of signal in healthy samples by inhibitor ([1]; Probe #102, healthy plasma): 60%

Compound: CCCNC(=O)[C@H]1O[C@@H]1C(=O)N[C@H](C(=O)N1CCC[C@H]1C(=O)O)[C@@H](C)CC [CA074]
- effect of inhibitor on signal, in words [1]: did not significantly decrease signal

Compound: [Ca] [Calcium]
- protease activity recovered by Calcium compared to Zinc [2]: minimal protease activity is recovered
- protease activity recovered by Calcium compared to Zinc ([2]; listed as calcium): does not show similar activation effects

Compound: O=C([O-])CN(CCN(CC(=O)O)CC(=O)O)CC(=O)[O-].[K+].[K+] [K2 EDTA]
- activity of recombinant MMP2 spiked into human K2 EDTA plasma [3]: completely deactivated

Compound: CC(C)C[C@H](NC(=O)[C@H]1O[C@@H]1C(=O)O)C(=O)NCCCCN=C(N)N [Probe E64, E64]
- effect of inhibitor on signal, in words [1]: decreased NASH signal significantly

Compound: CN1CCN(c2nc(-c3ccc(C(=O)NC4(C(=O)NCC#N)CCCCC4)cc3)cs2)CC1 [Probe L006235]
- effect of inhibitor on signal, in words [1]: did not significantly decrease signal

Compound: [Cl-].[Cl-].[Zn+2] [Zinc, Zinc chloride]
- activity of recombinant MMP2 spiked into human K2 EDTA plasma [3]: capable of reviving the MMP2 activity in plasma
- optimal Zinc concentration ([2]; across all vendors tested, Probe #349): 1 mM

Compound: CCCC(=O)O [butyrate]
- suitability as substrate for detection of enzymes [4]: promising for detection of broad range of enzymes

Compound: Probe #8: Caspase centric probe (5FAM-GVDVADGK(CPQ2)[PEG2′][dK][dK]GC; also: 5-FAM, CPQ2 quencher, PEG2, D-Lys-D-Lys-GC)
- contrast between healthy and Jo2 samples [5]: show contrast that is specific and sensitive to the Jo2 model

Compound: Probe #12: Caspase centric probe (5FAM-GDEVDGK(CPQ2)[PEG2′][dK][dK]GC; also: 5-FAM, CPQ2 quencher, PEG2, D-Lys-D-Lys-GC)
- contrast between healthy and Jo2 samples [5]: show contrast that is specific and sensitive to the Jo2 model

Compound: Probe #117: probe whose peptide linker is SEQ ID No 117 ({FAM}-GAALHNDGK(CPQ2)[PEG2′][dK][dK]-NH2; also: FAM, CPQ2 quencher, PEG2, D-Lys-D-Lys, amide)
- protease sensed by probe [6]: sensed
- protease sensed by probe [7]: sensed
- Fold change ratio, Zinc Buffer [8]: 2.11
- Fold change ratio, Normal Buffer [8]: 1.47

Compound: Probe #263: probe whose peptide linker is SEQ ID No 263 ({FAM}-GQKAAWDGK(CPQ2)-NH2; also: FAM, CPQ2 quencher)
- protease sensed by probe [9]: sensed
- Fold change ratio, Zinc Buffer [8]: 2.09
- Fold change ratio, Normal Buffer [8]: 1.7

Compound: Probe #409: the SARS CoV2 coronavirus substrate (SARS-COV2 3C protease) (GTSAVLQSGFRKGK; also: 5-FAM, CPQ2 quencher, PEG2-kk-GC)
- contrast between COVID and healthy samples [10]: modest contrast

Compound: Probe #411: probe of Table 1; sensed DPP4 (5FAM-GAAFAGK(CPQ2)[PEG2′][dK][dK]GC; also: 5-FAM, CPQ2 quencher, PEG2, D-Lys-D-Lys-GC)
- protease sensed by probe [11]: sensed
- Fold change ratio, Zinc Buffer [8]: 2.52
- Fold change ratio, Normal Buffer [8]: 1.88

Compound: Resorufin oleate
- suitability as substrate for detection of enzymes [4]: promising for detection of broad range of enzymes
